The subject of data set [1] is lean, female, Wistar rats. Briefly: Binge-eating on chocolate in rats (BED model). Format: in vivo. The source says: Carbohydrate and fat ‘comfort foods’, with bingeing on chocolate are known to be associated with eating disorders in humans and in rodents.
BED is, for example, to be studied using lean, female, Wistar rats (weight range 200-250 g at the start of the study) from Charles River, UK. Rats are to be contained in a controlled environment and housed in an appropriate way to perform the study, for example singly-housed in polypropylene cages with wire grid floors to enable food intake of each rat to be recorded. […]
Body weight, food and water intake are to be measured each day throughout the study, for example as described in the following: Animals are to be weighed at weekly intervals after arrival. […] The weights of the jars are to be recorded before and after the 2 h test session. […] The body weight of each rat and its food and water intake are to be measured on every morning of the study; readings are to be taken in the final stage of the light phase at ˜09:45 h. […]
During the training period, an extra food jar (along with the jar containing normal chow) containing chocolate are to be added to the cage for 2 hr/day intermittently, for at least three weeks, using the access schedule above. […] The chocolate and chow consumed during this 2 h period are to be measured. […]

The next data set deals with 6-OHDA lesioned rats. Put plainly: Forelimb step task (forelimb akinesia) in 6-OHDA lesioned rats. Format: in vivo. Particulars: co-administration with pramipexole. How it is done: Male Sprague-Dawley (outbred) rats (250-300 g; Harlan Laboratories, Indianapolis, Ind.) are to be pair-housed under environmentally controlled conditions under a 12 h light/dark cycle (lights on at 07:00); food and water are to be available ad libitum.
6-OHDA lesions will be carried out at described previously (Napier et al., Pramipexole-induced increased probabilistic discounting: comparison between a rodent model of Parkinson's disease and controls. Neuropsychopharmacology 37, 1397-1408, 2012). Prior to inducing lesions, desipramine (obtained from Sigma-Aldrich), a norepinephrine reuptake inhibitor, will be administered (25 mg/kg subcutaneously (sc)) to enhance selectivity of 6OHDA for dopamine neurons. Rats were anesthetized with isoflurane and secured in a stereotaxic frame. […]
Rats then will be trained for ICSS followed by probability discounting. […] Pramipexole will be infused for 14 days (optionally a similar time period may be used), during which probability discounting will be assessed each day. Forelimb akinesia will be evaluated before lesion, after lesion, and at various time points during pramipexole administration. […] Probability discounting will be assessed each day of chronic drug treatment; forelimb akinesia will be evaluated before lesion, after lesion, and at various time points during chronic drug administration.

A further data set relates to PD patients. The settings on record: cited from earlier work.
Data set [2] has as its system rats with 6-hydroxydopamine (6OHDA)-induced lesions of the dorsolateral striatum (DLS). Briefly: ICSS-mediated probability discounting (risk-taking) in rat model of PD. The class given is in vivo. Particulars: co-administration with pramipexole. The text has this: Impulsiveness includes a greater tendency for risk-taking. This tendency can be quantified using probability discounting procedures; a cross-species assessment in which the subject chooses between a small reinforcer (SR) delivered at a high probability, and a large reinforcer (LR) delivered at a low probability. Typically, the subjective value of the LR is discounted when its probability is low, and individuals then select the smaller, yet more certain reinforcer. Those who suffer from ICD are less sensitive to low probabilities than healthy individuals, and they more frequently select the LR even when the odds to obtain the reward are very low (Hendrickson, et al., Effects of mindful eating training on delay and probability discounting for food and money in obese and healthy-weight individuals. Behav. Res. Ther. 51, 399-409, 2013). […]
Rats then will be trained for ICSS followed by probability discounting. […] Pramipexole will be infused for 14 days (optionally a similar time period may be used), during which probability discounting will be assessed each day. Forelimb akinesia will be evaluated before lesion, after lesion, and at various time points during pramipexole administration. […]

As for `CC(C)COc1ccc(CNC(=O)N(Cc2ccc(F)cc2)C2CCN(C)CC2)cc1` [pimavanserin, N-(1-methylpiperidin-4-yl)-N-(4-fluorophenylmethyl)-N′-(4-(2-methylpropyloxy)phenylmethyl)carbamide], the “consumption of standard laboratory diet during the 2 h binge-eating session” value in data set [1] (compared to vehicle treated control) is “no effect”. Moreover, the “consumption of palatable food (chocolate) in 2 h binge-eating session” value in data set [1] (pimavanserin 0.1, 0.5, 1.0, 3.0, 6.0, 10.0 mg/kg po 60 min prior to session) is “decrease the consumption”. Also, the “motor function in rats receiving pramipexole” value in the data set on 6-OHDA lesioned rats is on record as “did not alter motor function”. For the same molecule, in the data set with PD patients, the “hallucinations and delusions associated with PD” value is “control hallucinations and delusions”; the “motor function in PD patients” value is recorded as “without impacting motor function”. For the same molecule, the “risk taking behavior in rats receiving pramipexole (proportion of rats selecting LR)” value in data set [2] is reported as “reduced risk taking behavior”.

Source of the values: patent US11135211B2, “Pimavanserin for treating impulse control disorder” (ACADIA Pharmaceuticals Inc., priority 2017, dated 2021).
